Reference: publication PMC4478171, “Synthesis, characterization, and preclinical validation of a PET radiopharmaceutical for interrogating Aβ (β-amyloid) plaques in Alzheimer’s disease” (EJNMMI Research, 2015)
“Also recorded” adds a separate entry of the source.

Experiments:
Aβ1-42 fibrils = molecular target: T1, Aβ1-42 fibrils (Homo sapiens, UniProt P05067); assay: Saturation radioligand binding to preformed Aβ1-42 fibrils
T1 construct: synthetic Aβ1-42 peptide (1 mg) (Bachem, Torrance, CA); purchased Bachem, Torrance, CA; host or cells: chemical synthesis
Method: Aβ1-42 fibrils were obtained using literature procedures described earlier. Briefly, synthetic Aβ1-42 peptide (1 mg) (Bachem, Torrance, CA) was initially dissolved in DMSO (50 μL) and diluted with the addition of mQ-H2O (925 μL). Finally, 1 M Tris-HCl (25 μL; pH 7.6) was added to the peptide solution to obtain a final peptide concentration (222 μM; 1 mg/mL). Thereafter, the peptide solution was incubated for 30 h at 37°C with shaking at 1,000 rpm in an Eppendorf Thermomixer. The fibril formation was confirmed by ThioT fluorescence. For determining the concentration of fibrils, the fibril reaction mix was centrifuged at 15,000×g for 15 min to separate the fibrils from the monomer. The concentration of Aβ monomer in the supernatant was determined in a BCA protein assay. […] The exact hot:cold (^18F-7B:7A) ratio was measured in each experiment by counting an aliquot of a sample (2 μL) of the radioligand preparation in a scintillation counter. Binding of ^18F-7B to human brain homogenates was assessed by incubating samples of insoluble fraction (5-μg insoluble protein/well) from AD subjects, with increasing concentrations of ^18F-7B (1.5 to 100 nM). Nonspecific binding was determined in parallel experiments utilizing 7A (2.5 μM) for Aβ1-42 fibrils and 7A (5 μM) for AD tissue as a competitor. […] Bmax values were calculated in pmol/gram wet weight of brain tissue.

[1] = Biodistribution studies in normal mice; assay type: in vivo, FVB mice; conditions: for Blood uptake / Bone uptake / Brain uptake / Kidney uptake / Liver uptake: FVB mice, n = 3
Method: All animal procedures were approved by the Washington University Animal Studies Committee. Pharmacokinetics of ^18F-7B in brain and other critical tissues of normal male 12-week-old FVB (wild type (WT); 28 to 36 g) mice were determined as previously described. Briefly, ^18F-7B (740 kBq) was dissolved in 100-μL saline containing 10% ethanol. All animals were anesthetized by isofluorane inhalation and injected with radiotracer ^18F-7B (740 kBq, 100 μL) via bolus injection through a tail vein. Animals were sacrificed by cervical dislocation under anesthesia at 5, 30, 60, and 120 min after injection (n = 3 each). Blood samples were obtained by cardiac puncture, organs then harvested rapidly, and all tissue samples analyzed for γ-activity. Data are expressed as the percentage injected dose (%ID) per gram of tissue (tissue kBq (injected kBq)^−1 (g tissue)^−1 × 100).

[2] = Metabolite analysis in human serum (radio-HPLC, radio-TLC); assay type: in vitro ADME; conditions: 37°C up to 60 min, radio-HPLC and radio-TLC
Method: Human serum (Sigma-Aldrich, St. Louis, MO, USA) was thawed. Serum (100 μL) was taken, diluted with saline to 10%, and incubated with HPLC-purified fraction of ^18F-7B (100 μCi each) at 37°C for 30 and 60 min. Samples were periodically withdrawn and analyzed on radio-HPLC using eluent mixture described above and radio-TLC using an eluent mixture of ethanol/saline in a ratio of 90:10 (to allow mobility of parental compound and other hydrophobic metabolites off the surface to analyze protein binding) and 10:90 (to analyze hydrophilic metabolites).

[3] = molecular target: cortical Aβ plaques in AD frontal cortex sections (Homo sapiens, UniProt P05067); assay: Autoradiography on AD frontal cortex sections with IHC correlation; assay type: binding; conditions: 10 nM tracer, 60 min, 12 μm AD frontal cortex sections
Method: Frozen AD frontal cortex sections (12 μm) were obtained using a TBS Minotome PLUS Cryostat. The tissue sections were thaw-mounted onto Superfrost Plus (Fisherbrand 12-550-15 (Fisherbrand, Leicestershire, UK)) microscope slides, allowed to air dry for 10 to 15 min, and stored at −80°C. For autoradiography, brain sections were brought to room temperature for 5 min and then pre-incubated in assay buffer (30 mM Tris-HCl, pH 7.4 + 0.1% BSA) for 10 min at RT. Sections were incubated with ^18F-7B (300 μL/slide; 10 nM) in the assay buffer for 60 min at room temperature. For determining nonspecific binding, adjacent sections were incubated in the additional presence of 2.5 μM cold ligand 7A. Sections were then washed at RT for 1 min in 30 mM Tris-HCl pH 7.4, 2 min in 70% ethanol/30 mM Tris-HCl, 1 min in 30% ethanol/30 mM Tris-HCl, and 1 min in 30 mM Tris-HCl (washing protocol using literature precedents. Sections were then dried and exposed to phosphor-imaging screen (BAS-MS 2025) for 30 min. Autoradiography images were obtained on a Fuji Bio-Imaging System FLA-7000 (Tokyo, Japan) and analyzed using MultiGauge software (Fuji, Tokyo, Japan). Following exposure to a phosphor-imaging screen, the sections were then blocked for 60 min at room temperature with 3% milk-0.25% Tween 20-PBS buffer. […]

Lipophilicity (log P) = assay type: physicochemical; conditions: octanol/water

T1 sequence (P05067 672-713 limits assumed): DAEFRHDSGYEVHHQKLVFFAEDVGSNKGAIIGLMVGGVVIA
cortical Aβ plaques in AD frontal cortex sections, sequence (P05067 672-711 limits assumed): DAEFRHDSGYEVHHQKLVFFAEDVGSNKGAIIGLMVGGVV

Structure (SMILES): CN(C)c1ccc(/C=C/c2nc3ccc(OCC[18F])cc3s2)cn1 [^18F-7B, (E)-5-(2-(6-(2-[^18F]-fluoroethoxy)-benzo[d]thiazol-2-yl)vinyl)-N,N-dimethylpyridin-2-amine]
- Bmax (Aβ1-42 fibrils): 6 pmol/nmol Aβ
- Kd (Aβ1-42 fibrils; one-site model): 61 nM
- Blood uptake ([1]; 5 min post i.v.): 3.18 ± 0.23 %ID/g
- Bone uptake ([1]; 5 min post i.v.): 1.61 ± 0.20 %ID/g
- Brain uptake ([1]; 5 min post i.v.): 7.23 ± 0.47 %ID/g
- Kidney uptake ([1]; 5 min post i.v.): 6.72 ± 0.44 %ID/g
- Liver uptake ([1]; 5 min post i.v.): 16.22 ± 1.43 %ID/g
- Blood uptake ([1]; 30 min post i.v.): 2.51 ± 0.09 %ID/g
- Bone uptake ([1]; 30 min post i.v.): 2.08 ± 0.13 %ID/g
- Brain uptake ([1]; 30 min post i.v.): 2.27 ± 0.13 %ID/g
- Kidney uptake ([1]; 30 min post i.v.): 2.83 ± 0.09 %ID/g
- Liver uptake ([1]; 30 min post i.v.): 5.21 ± 0.08 %ID/g
- Blood uptake ([1]; 60 min post i.v.): 2.40 ± 0.17 %ID/g
- Bone uptake ([1]; 60 min post i.v.): 3.41 ± 0.37 %ID/g
- Brain uptake ([1]; 60 min post i.v.): 2.00 ± 0.15 %ID/g
- Kidney uptake ([1]; 60 min post i.v.): 2.20 ± 0.07 %ID/g
- Liver uptake ([1]; 60 min post i.v.): 3.44 ± 0.20 %ID/g
- Blood uptake ([1]; 120 min post i.v.): 1.86 ± 0.05 %ID/g
- Bone uptake ([1]; 120 min post i.v.): 5.27 ± 0.34 %ID/g
- Brain uptake ([1]; 120 min post i.v.): 1.55 ± 0.01 %ID/g
- Kidney uptake ([1]; 120 min post i.v.): 1.59 ± 0.03 %ID/g
- Liver uptake ([1]; 120 min post i.v.): 2.73 ± 0.16 %ID/g
- brain uptake clearance ratio 5 min/120 min ([1]; %ID/g brain, normal mice): 4.66
- defluorination indicated by bone accumulation ([1]; as a function of time over 2 h, normal mice): slight defluorination
- stability in human serum [2]: presence of parental species in human serum; also recorded: presence of primarily the parental compound
- labeling of Aβ plaques in autoradiography [3]: showed labeling of cortical Aβ plaques
- logP (Lipophilicity (log P)): 1.3
